Test results published in patent US20110178104A1, “Anti-Heparin Compounds” (POLYMEDIX INC., priority 2010, published 2011).

Tests used:
[1] = test system: enoxaparin (ENOX); assay: FXa chromogenic assay (absence of plasma), enoxaparin; conditions: enoxaparin 0.1 μg/mL, absence of plasma
[2] = test system: fondaparinux (FONDAPX); assay: FXa chromogenic assay (absence of plasma), fondaparinux; conditions: fondaparinux 0.02 μg/mL, absence of plasma
[3] = test system: Unfractionated heparin; assay: aPTT clotting assay, UFH 0.4 U/mL in plasma (Example 10); type: biochemical; conditions: unfractionated heparin 0.4 U/mL in plasma; aPTT clotting
Experimental: aPTT clotting Assay: Unfractionated heparin was mixed with plasma at a final concentration of 0.4 U/mL (or concentration which increases aPTT time to between 120 and 300 seconds). […] The ACL Elite Hemostasis analyzer (Beckman Coulter™) was used to add aPTT reagent (HemosIL SynthASil) to supplemented plasma. Clotting was initiated by addition of CaCl2 and time to clot was recorded.

[4] = test system: enoxaparin; assay: FXa amidolytic assay (Example 10), enoxaparin; conditions: read-out: Enox FXa EC50; enoxaparin 0.1 ug/ml; human antithrombin, bovine Factor Xa
Experimental: (§1) Two μl of test agent are added (range between 0.01 and 23 ug/ml) and incubated for 5 minutes at 23° C. Bovine Factor Xa was added to a final concentration of 0.636 nkat/mL and incubated for a further 10 minutes at 23° C.

[5] = test system: fondaparinux; assay: FXa amidolytic assay (Example 10), fondaparinux; conditions: read-out: Fondap FXa EC50; fondaparinux 0.02 μg/mL; human antithrombin, bovine Factor Xa
Experimental: as §1

[6] = test system: tinzaparin; assay: FXa amidolytic assay (Example 10), tinzaparin; conditions: read-out: Tinzap FXa EC50; tinzaparin 0.1 ug/ml; human antithrombin, bovine Factor Xa
Experimental: as §1

SMILES | ENOX (FXa) EC50 [1] [µg/mL] | FONDAPX (FXa) EC50 [2] [µg/mL] | EC50 [3] [nM] | EC50 [4] [nM] | EC50 [5] [nM] | EC50 [6] [nM]
COc1ccc(NC(=O)[C@H](N)CCCNC(=N)N)cc1C(=O)N[C@H](CCCNC(=N)N)C(=O)Nc1ccc(OC)c(C(=O)N[C@H](CCCNC(=N)N)C(=O)Nc2ccc(OCCNC(=N)N)c(C(=O)N[C@H](CCCNC(=N)N)C(=O)Nc3ccc(OCCNC(=N)N)c(C(N)=O)c3)c2)c1 [Compound 10] | 1.43 |  |  |  |  | 
COc1ccc(NC(=O)[C@@H](CCCCNC(=N)N)NC(=O)c2cc(NC(=O)[C@@H](CCCCNC(=N)N)NC(=O)c3cc(NC(=O)[C@@H](CCCCNC(=N)N)NC(=O)c4cc(NC(=O)[C@H](N)CCCCNC(=N)N)ccc4OC)ccc3OC)ccc2OC)cc1C(N)=O [Compound 12] | 0.36 | 4.26 |  |  |  | 
COc1ccc(NC(=O)[C@@H](C)NC(=O)c2cc(NC(=O)[C@@H](CCCNC(=N)N)NC(=O)c3cc(NC(=O)[C@@H](CCCNC(=N)N)NC(=O)c4cc(NC(=O)[C@H](N)CCCNC(=N)N)ccc4OC)ccc3OC)ccc2OC)cc1C(N)=O [Compound 13] | 0.88 | 6.72 |  |  |  | 
COc1ccc(NC(=O)[C@@H](CCCNC(=N)N)NC(=O)c2cc(NC(=O)[C@@H](C)NC(=O)c3cc(NC(=O)[C@@H](CCCNC(=N)N)NC(=O)c4cc(NC(=O)[C@H](N)CCCNC(=N)N)ccc4OC)ccc3OC)ccc2OC)cc1C(N)=O [Compound 14] | 2.04 | 10.31 |  |  |  | 
COc1ccc(NC(=O)[C@H](N)CCCNC(=N)N)cc1C(=O)N[C@H](CCCNC(=N)N)C(=O)Nc1ccc(OC)c(C(=O)N[C@H](CCCNC(=N)N)C(=O)Nc2ccc(OC)c(C(=O)N[C@H](CCCNC(=N)N)C(=O)Nc3ccc(OCCNC(=N)N)c(C(N)=O)c3)c2)c1 [Compound 18] | 0.57 |  |  |  |  | 
N=C(N)NCCC[C@@H](N)C(=O)Nc1ccc(OCCNC(=N)N)c(C(=O)N[C@H](CCCNC(=N)N)C(=O)Nc2ccc(OCCNC(=N)N)c(C(=O)N[C@H](CCCNC(=N)N)C(=O)Nc3ccc(OCCNC(=N)N)c(C(=O)N[C@H](CCCNC(=N)N)C(=O)Nc4ccc(OCCNC(=N)N)c(C(N)=O)c4)c3)c2)c1 [Compound 31] | 0.72 |  |  |  |  | 
COc1ccc(NC(=O)[C@H](CCCN)NC(=O)c2cc(NC(=O)[C@H](CCCN)NC(=O)c3cc(NC(=O)[C@H](CCCN)NC(=O)c4cc(NC(=O)[C@@H](N)CCCN)ccc4OC)ccc3OC)ccc2OC)cc1C(N)=O [Compound 89] | 16.70 |  |  |  |  | 
COc1cc(OC)c(C(=O)N[C@H]2CC[C@@H](NC(=O)c3cc(C(N)=O)c(OCCCCCN)cc3OCCCCCN)CC2)cc1C(=O)N[C@H]1CC[C@@H](N=C(N(C)C)N(C)C)CC1 [Compound 413] |  |  | 7060 | 4650 | 14800 | 2760
COc1cc(OC)c(C(=O)N[C@H]2CC[C@@H](NC(=O)c3cc(C(=O)NCCN)c(OCCCCCN)cc3OCCCCCN)CC2)cc1C(=O)N[C@H]1CC[C@@H](N=C(N(C)C)N(C)C)CC1 [Compound 414] |  |  | > 10000 | 3320 | > 10000 | 2060
COc1cc(OC)c(C(=O)N[C@H]2CC[C@@H](NC(=O)c3cc(C(=O)N4CCC(CN)CC4)c(OC)cc3OC)CC2)cc1C(=O)N[C@H]1CC[C@@H](NC(=O)c2cc(C(=O)N3CCC(CN)CC3)c(OC)cc2OC)CC1 [Compound 415] |  |  | > 10000 | > 5000 | > 10000 | > 5000
COc1cc(OC)c(C(=O)N[C@H]2CC[C@@H](NC(=O)c3cc(C(=O)N4CCC(CN)CC4)c(OC)cc3OC)CC2)cc1C(=O)N[C@H]1CC[C@@H](N=C(N(C)C)N(C)C)CC1 [Compound 416] |  |  | > 10000 | > 5000 | > 10000 | > 5000
COc1cc(OC)c(C(=O)N[C@H]2CC[C@@H](NC(=O)c3cc(C(=O)N[C@H]4CC[C@@H](NC(=O)c5cc(C(=O)NC6CCNCC6)c(OC)cc5OC)CC4)c(OC)cc3OC)CC2)cc1C(=O)NC1CCNCC1 [Compound 417] |  |  | 2220 | 495 | 1110 | 200
COc1cc(OC)c(C(=O)N[C@H]2CC[C@@H](NC(=O)c3cc(C(=O)N[C@H]4CC[C@@H](N=C(N(C)C)N(C)C)CC4)c(OC)cc3OC)CC2)cc1C(=O)NC1CCNCC1 [Compound 418] |  |  | > 10000 | > 5000 | > 10000 | > 5000
COc1cc(OC)c(C(=O)N[C@H]2CC[C@@H](NC(=O)c3cc(C(=O)N4CCC(N)CC4)c(OC)cc3OC)CC2)cc1C(=O)N[C@H]1CC[C@@H](NC(=O)c2cc(C(=O)N3CCC(N)CC3)c(OC)cc2OC)CC1 [Compound 419] |  |  | > 10000 | > 5000 | > 10000 | > 5000
COc1cc(OC)c(C(=O)N[C@H]2CC[C@@H](NC(=O)c3cc(C(=O)N4CCC(N)CC4)c(OC)cc3OC)CC2)cc1C(=O)N[C@H]1CC[C@@H](N=C(N(C)C)N(C)C)CC1 [Compound 420] |  |  | > 10000 | > 5000 | > 10000 | > 5000
COc1cc(OC)c(C(=O)Nc2ccc(NC(=O)c3cc(C(=O)Nc4ccc(NC(=O)c5cc(C(=O)NCCN)c(OC)cc5OC)cc4)c(OC)cc3OC)cc2)cc1C(=O)NCCN [Compound 421] |  |  | 1200 | 238 | 159 | 220
COc1cc(OC)c(C(=O)Nc2ccc(NC(=O)c3cc(C(=O)Nc4ccc(N=C(N(C)C)N(C)C)cc4)c(OC)cc3OC)cc2)cc1C(=O)NCCN [Compound 422] |  |  | 1250 | 608 | 1890 | 426
COc1cc(OC)c(C(=O)N[C@H]2CC[C@@H](NC(=O)c3cc(C(=O)N4CCC(CN)CC4)c(OCCCCCN)cc3OCCCCCN)CC2)cc1C(=O)N[C@H]1CC[C@@H](NC(=O)c2cc(C(=O)N3CCC(CN)CC3)c(OCCCCCN)cc2OCCCCCN)CC1 [Compound 423] |  |  | 3150 | 1180 | > 10000 | 296
COc1cc(OC)c(C(=O)N[C@H]2CC[C@@H](NC(=O)c3cc(C(=O)N4CCC(CN)CC4)c(OCCCCCN)cc3OCCCCCN)CC2)cc1C(=O)N[C@H]1CC[C@@H](N=C(N(C)C)N(C)C)CC1 [Compound 424] |  |  | > 10000 | > 5000 | > 10000 | > 5000
COc1cc(OC)c(C(=O)N[C@H]2CC[C@@H](NC(=O)c3cc(C(=O)NC4CCNCC4)c(OCCCCCN)cc3OCCCCCN)CC2)cc1C(=O)N[C@H]1CC[C@@H](NC(=O)c2cc(C(=O)NC3CCNCC3)c(OCCCCCN)cc2OCCCCCN)CC1 [Compound 425] |  |  | 429 | 88 | 502 | 62
COc1cc(OC)c(C(=O)N[C@H]2CC[C@@H](NC(=O)c3cc(C(=O)N4CCC(N)CC4)c(OCCCCCN)cc3OCCCCCN)CC2)cc1C(=O)N[C@H]1CC[C@@H](NC(=O)c2cc(C(=O)N3CCC(N)CC3)c(OCCCCCN)cc2OCCCCCN)CC1 [Compound 426] |  |  | 11300 | 2750 | > 10000 | 530
COc1ccc(NC(=O)[C@H](CCCCN)NC(=O)c2cc(C(=O)N[C@@H](CCCCN)C(=O)Nc3ccc(OC)c(C(=O)N[C@@H](CCCCN)C(N)=O)c3)c(OC)cc2OC)cc1C(=O)N[C@@H](CCCCN)C(N)=O [Compound 427] |  |  | > 10000 | > 5000 | > 10000 | > 5000
